Experimental data published in ChEMBL document CHEMBL1909593, “Identification of novel plasmin inhibitors possessing nitrile moiety as warhead” (Bioorg Med Chem Lett, 2011).

How the values were obtained:
[1] = molecular target: Urokinase-type plasminogen activator (Homo sapiens) (UniProt P00749); test: Inhibition of urokinase at 200 uM
Plasminogen [2] = molecular target: T1, Plasminogen (Homo sapiens, UniProt P00747); test: Inhibition of plasmin
Plasma kallikrein [3] = molecular target: T2, Plasma kallikrein (Homo sapiens, UniProt P03952); test: Inhibition of plasma kallikrein at 1000 uM
[4] = molecular target: Urokinase-type plasminogen activator (Homo sapiens) (UniProt P00749); test: Inhibition of urokinase at 1000 uM
Plasma kallikrein [5] = molecular target: T2, Plasma kallikrein; test: Inhibition of plasma kallikrein
[6] = molecular target: Urokinase-type plasminogen activator (Homo sapiens) (UniProt P00749); test: Inhibition of urokinase at 400 uM
Plasma kallikrein [7] = molecular target: T2, Plasma kallikrein; test: Inhibition of plasma kallikrein at 250 uM
Plasminogen [8] = molecular target: T1, Plasminogen; test: Inhibition of plasmin at 250 uM
[9] = molecular target: Urokinase-type plasminogen activator (Homo sapiens) (UniProt P00749); test: Inhibition of urokinase at 500 uM

T1 sequence (P00747 97-580 limits assumed): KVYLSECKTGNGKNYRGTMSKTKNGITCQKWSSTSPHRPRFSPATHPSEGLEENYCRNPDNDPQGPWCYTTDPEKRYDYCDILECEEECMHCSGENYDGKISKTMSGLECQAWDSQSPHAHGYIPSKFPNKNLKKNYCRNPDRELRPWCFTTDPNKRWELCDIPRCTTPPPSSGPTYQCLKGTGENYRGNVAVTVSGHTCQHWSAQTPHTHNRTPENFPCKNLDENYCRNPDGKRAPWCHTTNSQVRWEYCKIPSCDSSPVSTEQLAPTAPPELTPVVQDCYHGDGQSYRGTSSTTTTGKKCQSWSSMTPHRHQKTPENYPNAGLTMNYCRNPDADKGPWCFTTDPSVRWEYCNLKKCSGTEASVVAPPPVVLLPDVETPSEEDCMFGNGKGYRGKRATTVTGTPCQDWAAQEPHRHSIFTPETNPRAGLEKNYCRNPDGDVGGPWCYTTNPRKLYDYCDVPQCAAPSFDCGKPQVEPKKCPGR
T1 sequence (P00747 581-810 limits assumed): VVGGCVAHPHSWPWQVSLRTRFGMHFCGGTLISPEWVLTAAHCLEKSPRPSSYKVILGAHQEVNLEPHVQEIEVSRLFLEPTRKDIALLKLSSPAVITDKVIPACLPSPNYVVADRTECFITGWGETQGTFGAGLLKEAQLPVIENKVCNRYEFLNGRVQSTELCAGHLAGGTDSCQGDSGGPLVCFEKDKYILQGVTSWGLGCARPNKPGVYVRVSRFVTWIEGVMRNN
T2 sequence (P03952 20-390 limits assumed): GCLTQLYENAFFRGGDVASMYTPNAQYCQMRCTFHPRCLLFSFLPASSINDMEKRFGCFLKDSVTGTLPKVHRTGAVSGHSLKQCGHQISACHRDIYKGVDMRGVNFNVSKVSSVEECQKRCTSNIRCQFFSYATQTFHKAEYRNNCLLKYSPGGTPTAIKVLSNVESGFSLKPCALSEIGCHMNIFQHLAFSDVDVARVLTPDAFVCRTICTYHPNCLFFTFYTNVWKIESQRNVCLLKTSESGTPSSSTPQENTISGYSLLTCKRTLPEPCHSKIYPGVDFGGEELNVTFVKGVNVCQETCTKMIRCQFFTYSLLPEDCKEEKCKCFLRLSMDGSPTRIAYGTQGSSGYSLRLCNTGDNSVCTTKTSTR
T2 sequence (P03952 391-638 limits assumed): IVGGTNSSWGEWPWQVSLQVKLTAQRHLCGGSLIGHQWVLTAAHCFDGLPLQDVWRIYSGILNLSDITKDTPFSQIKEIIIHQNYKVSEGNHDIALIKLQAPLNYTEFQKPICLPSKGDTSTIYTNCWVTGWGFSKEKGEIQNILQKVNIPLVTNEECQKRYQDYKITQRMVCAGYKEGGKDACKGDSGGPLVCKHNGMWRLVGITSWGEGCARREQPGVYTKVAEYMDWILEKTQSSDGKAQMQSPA

Structure (SMILES) | inhibition [1] [%] | IC50 (Plasminogen [2]) [µM] | inhibition (Plasma kallikrein [3]) [%] | inhibition [4] [%] | IC50 (Plasma kallikrein [5]) [µM] | further results
N#C[C@H](CCCCN)NC(=O)c1ccc(OCc2ccncc2)c(NC(=O)CCc2c[nH]c3ccccc23)c1 | 0 | 370 | 44 |  |  | 
N#C[C@H](CCCCN)NC(=O)c1ccc(OCc2ccncc2)c(NC(=O)Cc2ccc(F)cc2)c1 |  | 590 | 11 | 19 |  | 
CC[C@@H](C)[C@@H](N)C(=O)N[C@@H](Cc1ccccc1)C(=O)N[C@@H](CCCCN)C(N)=O |  | 290 | 0 | 0 |  | 
COc1ccc(C(=O)N[C@H](C#N)CCCCN)cc1NC(=O)CCc1cn(Cc2ccc(F)cc2)c2ccccc12 | 0 |  |  |  |  | inhibition (Plasma kallikrein [7]): 22%; inhibition (Plasminogen [8]): 0%
N#C[C@H](CCCCN)NC(=O)c1ccc(OCc2ccncc2)cc1 |  | 240 | 45 | 16 |  | 
N#C[C@H](CCCCN)NC(=O)c1ccc(OCc2ccncc2)c(NC(=O)Cc2ccc3ccccc3c2)c1 |  | 220 |  |  | 380 | inhibition [9]: 20%
N#C[C@H](CCCCN)NC(=O)c1ccc(OCc2ccncc2)c(NC(=O)Cc2cccc3ccccc23)c1 |  | 570 |  |  | 680 | inhibition [9]: 16%

Now from value to molecule, other results behind:

inhibition [1] [%] | IC50 (Plasminogen [2]) [µM] | inhibition (Plasma kallikrein [3]) [%] | inhibition [4] [%] | IC50 (Plasma kallikrein [5]) [µM] | Structure (SMILES) | further results
 | 78 | 38 | 15 |  | CC[C@@H](C)[C@@H](N)C(=O)N[C@@H](Cc1ccccc1)C(=O)N[C@H](C#N)CCCCN | 
0 | 220 |  |  | 910 | CC(C)(C)OC(=O)n1cc(CCC(=O)Nc2cc(C(=O)N[C@H](C#N)CCCCN)ccc2OCc2ccncc2)c2ccccc21 | 
 | 140 | 0 |  |  | N#C[C@H](CCCCN)NC(=O)c1ccc(OCc2ccncc2)c(NC(=O)CCc2cn(Cc3ccc(F)cc3)c3ccccc23)c1 | inhibition [6]: 0%
